Data published in patent US20100216779A1 (GLAXOSMITHKLINE LLC, priority 2007, published 2010).

Test system: various cell lines of different tumor origins
Assay: Inhibition of cell proliferation, InCell Analyzer assay
Assay type: cell-based
Protocol: C. Inhibition of Cell Proliferation
For InCell Analyser assay, various cell lines of different tumor origins were grown to 70-80% confluency in appropriate culture media containing 10% fetal bovine serum at 37° C. in a 5% CO2 incubator. On day-1, cells were seeded at 2 densities in 384-well plates and incubated at 37° C. overnight. Stock compound plates were prepared in advance which contained dimethyl sulfoxide (DMSO) alone and a 9-point half-log decreasing dose range of the compound of Example 22 in DMSO. The compound plates were stored at −80° C. and each plate was only thawed once and used. On day 0, the main assay plates received compound or DMSO via a sonic delivery system (ECHO). The highest final concentration of compound of the dose range in the culture plates was 10 uM. These plates were cultured at 37° C. for 3 days. […] On day 3, the compound treated plates were stained and fixed to measure proliferation, apoptosis, and mitotic index using an InCell1000 analyser. A nuclear stain was used to identify cells in the wells. By counting the number of nuclei, the proliferation index of compound treated groups were calculated as a percentage relative to the DMSO control, which was set to 100%. The IC50 values were calculated using model 205 in ExcelFit.

IC50 (Homo sapiens, NCI-H292, NCI-H292, Lung): 1 to 5 µM
IC50 (Homo sapiens, NCI-H295R, Cervix): > 5 µM
IC50 (Homo sapiens, NCI-H358, NCI-H358, Lung): < 1 µM
IC50 (Homo sapiens, NCI-H460, NCI-H460, Lung): 1 to 5 µM
IC50 (Homo sapiens, NCI-H520, NCI-H520, Lung): 1 to 5 µM
IC50 (Homo sapiens, NCI-H522, NCI-H522, Lung): 1 to 5 µM
IC50 (Homo sapiens, NCI-H526, NCI-H526, Lung): < 1 µM
IC50 (Homo sapiens, NCI-H596, NCI-H596, Lung): > 5 µM
IC50 (Homo sapiens, NCI-H630, NCI-H630, Rectum): < 1 µM
IC50 (Homo sapiens, NCI-H661, NCI-H661, Lung): 1 to 5 µM
IC50 (Homo sapiens, NCI-H716, NCI-H716, Colon): < 1 µM
IC50 (Homo sapiens, NCI-H727, NCI-H727, Lung): 1 to 5 µM
IC50 (Homo sapiens, NCI-H747, NCI-H747, Colon): 1 to 5 µM
IC50 (Homo sapiens, NCI-H1395, NCI-H1395, Lung): > 5 µM
IC50 (Homo sapiens, NCI-H2087, NCI-H2087, Lung): > 5 µM
IC50 (Homo sapiens, NCI-N87, NCI-N87, Stomach): < 1 µM
IC50 (Homo sapiens, NCI/ADR-RES, Breast): 1 to 5 µM
IC50 (Homo sapiens, OV-90, OV-90, Ovary): > 5 µM
IC50 (Homo sapiens, OVCAR-3, OVCAR-3, Ovary): > 5 µM
IC50 (Homo sapiens, OVCAR-4, OVCAR-4, Ovary): 1 to 5 µM
IC50 (Homo sapiens, OVCAR-5, OVCAR-5, Ovary): < 1 µM
IC50 (Homo sapiens, OVCAR-8, OVCAR-8, Ovary): 1 to 5 µM
IC50 (Homo sapiens, RL95-2, RL95-2, Uterus): 1 to 5 µM
IC50 (Homo sapiens, RPMI-2650, RPMI2650, H&N): 1 to 5 µM
IC50 (Homo sapiens, RPMI-6666, RPMI6666, lymphoma - Hodgkin): 1 to 5 µM
IC50 (Homo sapiens, RPMI-8226, RPMI8226, Myeloma): < 1 µM
IC50 (Homo sapiens, RWPE-1, RWPE-1, Prostate): < 1 µM
IC50 (Homo sapiens, RXF 393, RXF393, Kidney): 1 to 5 µM
IC50 (Homo sapiens, Raji, lymphoma - Burkitt): 1 to 5 µM
IC50 (Homo sapiens, SAOS-2, SaOS-2, Sarcoma): < 1 µM
IC50 (Homo sapiens, SCC-4, SCC-4, H&N): 1 to 5 µM
IC50 (Homo sapiens, SCC-9, SCC-9, H&N): > 5 µM
IC50 (Homo sapiens, SCC-15, SCC-15, H&N): > 5 µM
IC50 (Homo sapiens, SCC-25, SCC-25, H&N): < 1 µM
IC50 (Homo sapiens, SCaBER, Bladder): 1 to 5 µM
IC50 (Homo sapiens, SF-268, SF-268, glioma): 1 to 5 µM
IC50 (Homo sapiens, SF-295, SF-295, glioma): > 5 µM
IC50 (Homo sapiens, SF-539, SF-539, glioma): > 5 µM
IC50 (Homo sapiens, SHP77, SHP-77, Lung): 1 to 5 µM
IC50 (Homo sapiens, SJRH30, SJRH30, Sarcoma - rhabdomyosarcoma): < 1 µM
IC50 (Homo sapiens, SK-BR-3, SK-BR-3, Breast): 1 to 5 µM
IC50 (Homo sapiens, SK-LMS-1, SK-LM-S1, Sarcoma): 1 to 5 µM
IC50 (Homo sapiens, SK-MEL3, SK-MEL-3, Skin): > 5 µM
IC50 (Homo sapiens, SK-MEL-1, SK-MEL-1, Skin): > 5 µM
IC50 (Homo sapiens, SK-MEL-28, SK-MEL-28, Skin): 1 to 5 µM
IC50 (Homo sapiens, SK-N-AS, neuroblastoma): 1 to 5 µM
IC50 (Homo sapiens, SK-N-DZ, neuroblastoma): 1 to 5 µM
IC50 (Homo sapiens, SK-N-FI, neuroblastoma): < 1 µM
IC50 (Homo sapiens, SK-NEP-1, SK-NEP-1, Kidney): > 5 µM
IC50 (Homo sapiens, SK-OV-3, SK-OV-3, Ovary): > 5 µM
IC50 (Homo sapiens, SK-UT-1, SK-UT-1, Sarcoma): 1 to 5 µM
IC50 (Homo sapiens, SN12C, Kidney): 1 to 5 µM
IC50 (Homo sapiens, SNB-19, SNB-19, glioma): > 5 µM
IC50 (Homo sapiens, SNB-75, SNB-75, glioma): > 5 µM
IC50 (Homo sapiens, SNU1, SNU-1, Stomach): > 5 µM
IC50 (Homo sapiens, SNU-5, SNU-5, Stomach): > 5 µM
IC50 (Homo sapiens, SNU-16, SNU-16, Stomach): > 5 µM
IC50 (Homo sapiens, SNU-182, SNU-182, Liver): 1 to 5 µM
IC50 (Homo sapiens, SNU-387, SNU-387, Liver): 1 to 5 µM
IC50 (Homo sapiens, SNU-398, SNU-398, Liver): 1 to 5 µM
IC50 (Homo sapiens, SNU-423, SNU-423, Liver): 1 to 5 µM
IC50 (Homo sapiens, SNU-449, SNU-449, Liver): > 5 µM
IC50 (Homo sapiens, SNU-475, SNU-475, Liver): 1 to 5 µM
IC50 (Homo sapiens, ST486, ST486, lymphoma - Burkitt): 1 to 5 µM
IC50 (Homo sapiens, SW48, SW48, Colon): < 1 µM
IC50 (Homo sapiens, SW480, SW480, Colon): 1 to 5 µM
IC50 (Homo sapiens, SW684, SW684, Sarcoma): > 5 µM
IC50 (Homo sapiens, SW756, SW756, Cervix): 1 to 5 µM
IC50 (Homo sapiens, SW780, SW780, Bladder): > 5 µM
IC50 (Homo sapiens, SW837, SW837, Colon): > 5 µM
IC50 (Homo sapiens, SW872, SW872, Sarcoma): 1 to 5 µM
IC50 (Homo sapiens, SW948, SW948, Colon): > 5 µM
IC50 (Homo sapiens, SW 954, SW954, Vulva): < 1 µM
IC50 (Homo sapiens, SW 962, SW962, Vulva): < 1 µM
IC50 (Homo sapiens, SW982, SW982, Sarcoma): > 5 µM
IC50 (Homo sapiens, SW1088, SW1088, glioma): 1 to 5 µM
IC50 (Homo sapiens, SW 1116, SW1116, Colon): > 5 µM
IC50 (Homo sapiens, SW1353, SW1353, Sarcoma): > 5 µM
IC50 (Homo sapiens, SW1417, SW1417, Colon): < 1 µM
IC50 (Homo sapiens, SW1463, SW1463, Rectum): < 1 µM
IC50 (Homo sapiens, SW1783, SW1783, glioma): > 5 µM
IC50 (Homo sapiens, SW1990, SW1990, Pancreas): 1 to 5 µM
IC50 (Homo sapiens, SW-403, SW403, Colon): < 1 µM
IC50 (Homo sapiens, SW-620, SW620, Colon): 1 to 5 µM
IC50 (Homo sapiens, SiHa, Cervix): 1 to 5 µM
IC50 (Homo sapiens, T47D, T-47D, Breast): 1 to 5 µM
IC50 (Homo sapiens, THP-1, THP-1, AML): 1 to 5 µM
IC50 (Homo sapiens, TK-10, TK-10, Kidney): 1 to 5 µM
IC50 (Homo sapiens, U2OS, U-2OS, Sarcoma): 1 to 5 µM
IC50 (Homo sapiens, U138-MG, U-138MG, glioma): > 5 µM
IC50 (Homo sapiens, U-87 MG, glioma): > 5 µM
IC50 (Homo sapiens, U-251, U251, glioma): 1 to 5 µM
IC50 (Homo sapiens, UACC-62, UACC-62, Skin): 1 to 5 µM
IC50 (Homo sapiens, UACC-257, UACC-257, Skin): 1 to 5 µM
IC50 (Homo sapiens, UACC-812, UACC-812, Breast): > 5 µM
IC50 (Homo sapiens, UMUC3, UM-UC-3, Bladder): > 5 µM
IC50 (Homo sapiens, UO-31, UO-31, Kidney): 1 to 5 µM
IC50 (Homo sapiens, WM-115, WM115, Skin): > 5 µM
IC50 (Homo sapiens, YAPC, Pancreas): > 5 µM
IC50 (Homo sapiens, ZR-75-1, ZR-75-1, Breast): > 5 µM
IC50 (J82, Bladder): 1 to 5 µM
IC50 (JAR, Placenta): 1 to 5 µM
IC50 (KHOS-240S, Sarcoma): 1 to 5 µM
IC50 (KLE, Uterus): 1 to 5 µM
IC50 (KPL-1, KPL-1, Breast): 1 to 5 µM
IC50 (M14, Skin): 1 to 5 µM
IC50 (MC-CAR, #N/A): 1 to 5 µM
IC50 (ML-2, AML): > 5 µM
IC50 (MT-3, Breast): < 1 µM
IC50 (MX-1, Breast): 1 to 5 µM
IC50 (NALM-1, CML blast phase): 1 to 5 µM
IC50 (NCI-H322, NCI-H322, Lung): < 1 µM
IC50 (NCI-H660, NCI-H660, Prostate): > 5 µM
IC50 (RD, Sarcoma - rhabdomyosarcoma): > 5 µM
IC50 (RD-ES, Sarcoma): < 1 µM
IC50 (RL, lymphoma - non-Hodgkin): 1 to 5 µM
IC50 (SCC12, SCC-12, H&N): > 5 µM
IC50 (SCC-13, SCC-13, H&N): > 5 µM
IC50 (SCLC-3, Lung): 1 to 5 µM
IC50 (SH-4, Skin): 1 to 5 µM
IC50 (SKO-007, SKO-007, Myeloma): 1 to 5 µM
IC50 (SR, lymphoma - large cell immunoblastic): 1 to 5 µM
IC50 (SW579, SW579, Thyroid): 1 to 5 µM
IC50 (T24, Bladder): > 5 µM
IC50 (T-cell, MJ, lymphoma - cutaneous T cell): 1 to 5 µM
IC50 (TE 381.T, TE381.T, Sarcoma - rhabdomyosarcoma): < 1 µM
IC50 (TO 175.T, TO175.T, Skin): 1 to 5 µM
IC50 (U266B1, Myeloma): 1 to 5 µM
IC50 (Y79, Eye): > 5 µM
Structure (SMILES): COc1cc(N2CCC(N3CCCCC3)CC2)ccc1Nc1nccc(-c2c(-c3cccc(C(=O)Nc4c(F)cccc4F)c3)nc3ccccn23)n1 [Example 22, 3-[3-(2-{[4-(1,4′-bipiperidin-1′-yl)-2-(methyloxy)phenyl]amino}-4-pyrimidinyl)imidazo[1,2-a]pyridin-2-yl]-N-(2,6-difluorophenyl)benzamide]
